Measured values taken from patent US20120077828A1, “CHEMICAL COMPOUNDS” (priority 2010, published 2012).

Each compound was assayed against T1, PERK (Homo sapiens, UniProt Q9NZJ5) (assay: PKR-like Endoplasmic Reticulum Kinase (PERK) Assay (HTRF Format)). Details: average, in at least one set of experimental runs; read-out: average pIC50 value against PERK (converted).
T1 construct: GST-PERK (536-1116) cytoplasmic domain was purchased from Invitrogen; purchased Invitrogen PV5106
T1 sequence (Q9NZJ5 536-1116): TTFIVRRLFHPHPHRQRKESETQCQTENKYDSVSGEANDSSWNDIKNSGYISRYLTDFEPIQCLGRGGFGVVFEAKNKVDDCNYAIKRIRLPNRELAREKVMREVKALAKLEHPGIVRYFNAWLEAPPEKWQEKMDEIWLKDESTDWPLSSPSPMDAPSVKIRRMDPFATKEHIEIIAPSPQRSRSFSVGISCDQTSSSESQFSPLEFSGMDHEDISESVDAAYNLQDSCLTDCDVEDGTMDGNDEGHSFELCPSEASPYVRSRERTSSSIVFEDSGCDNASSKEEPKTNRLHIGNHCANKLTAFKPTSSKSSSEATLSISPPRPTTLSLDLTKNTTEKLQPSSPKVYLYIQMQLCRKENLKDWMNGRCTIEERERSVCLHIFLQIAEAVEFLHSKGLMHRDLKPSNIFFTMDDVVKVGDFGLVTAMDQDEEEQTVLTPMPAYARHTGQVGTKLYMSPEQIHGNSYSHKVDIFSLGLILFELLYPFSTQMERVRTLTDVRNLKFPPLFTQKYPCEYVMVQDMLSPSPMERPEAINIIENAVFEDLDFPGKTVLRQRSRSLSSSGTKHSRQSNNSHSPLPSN
Type: biochemical
Protocol: PKR-like Endoplasmic Reticulum Kinase (PERK) Assay (HTRF Format)
Source of substrate: elF2α: 6-His-Full-length human elF2α is purified from baculovirus expression in Sf9 insect cells. The elF2 protein is buffer exchanged by dialysis into PBS, chemically modified by NHS-LC-Biotin and then buffer exchanged by dialysis into 50 mm TRIS pH 7.2/250 mM NaCl/5 mM DTT. Protein is aliquoted and stored at −80° C.
Assays were performed by adding GST-PERK solution to assay plates containing compounds and pre-incubated for 30 minutes at room temperature. The reaction is initiated by the addition of ATP and EIF2α substrate solution. Quench solution is added following a one hour incubation at room temperature. The plates are covered for 2 hours at room temperature prior to determination of signal. The resulting signal is quantified on a Viewlux Reader (PerkinElmer). The APC Signal is normalized to the Europium signal by transforming the data through an APC/Eu calculation.
Compounds under analysis were dissolved in DMSO to 1.0 mM and serially diluted 1 to 3 with DMSO through eleven dilutions. 0.1 μl of each concentration was transferred to the corresponding well of an assay plate. This creates a final compound concentration range from 0.00017 to 10 μM.
The data for concentration response curves were plotted as % Inhibition calculated with the data reduction formula 100*(1−(U1−C2)/(C1−C2)) versus concentration of compound where U is the unknown value, C1 is the average control value obtained for 1% DMSO, and C2 is the average control value obtained for 0.1 M EDTA. Data were fitted with a curve described by:
where A is the minimum y, B is the maximum y concentration [M], D is the slope factor, and x is the log10 of the compound.
In the above data, pIC50 is defined as −log(IC50) where the IC50 value is expressed in molar units.

IC50	SMILES
≤ 2.51 nM	NCCc1cnc(N)c2c(-c3ccc4c(c3F)CCN4C(=O)Cc3cc(F)ccc3F)coc12 [Example 146, 7-(2-aminoethyl)-3-{1-[(2,5-difluorophenyl)acetyl]-4-fluoro-2,3-dihydro-1H-indol-5-yl}furo[3,2-c]pyridin-4-amine]
≤ 1 nM	Nc1ncc(Cl)c2occ(-c3ccc4c(c3)CCN4C(=O)Cc3cc(F)ccc3F)c12 [Example 131, 7-chloro-3-{1-[(2,5-difluorophenyl)acetyl]-2,3-dihydro-1H-indol-5-yl}furo[3,2-c]pyridin-4-amine]
≤ 0.316 nM	Cn1cc(-c2ccc3c(c2)CCN3C(=O)Cc2cc(Cl)ccc2F)c2c(N)ncnc21 [Example 100, 5-{1-[(5-chloro-2-fluorophenyl)acetyl]-2,3-dihydro-1H-indol-5-yl}-7-methyl-7H-pyrrolo[2,3-d]pyrimidin-4-amine]
≤ 0.316 nM	Cn1cc(-c2ccc3c(c2F)CCN3C(=O)Cc2cc(F)ccc2F)c2c(N)ncnc21 [Example 114, 5-{1-[(2,5-difluorophenyl)acetyl]-4-fluoro-2,3-dihydro-1H-indol-5-yl}-7-methyl-7H-pyrrolo[2,3-d]pyrimidin-4-amine]
≤ 1 nM	CN1CC(n2cc(-c3ccc4c(c3)CCN4C(=O)Cc3cccc(C(F)(F)F)c3)c3c(N)ncnc32)C1 [Example 133, 7-(1-methyl-3-azetidinyl)-5-(1-{[3-(trifluoromethyl)phenyl]acetyl}-2,3-dihydro-1H-indol-5-yl)-7H-pyrrolo[2,3-d]pyrimidin-4-amine]
≤ 0.316 nM	Nc1ncnc2c1c(-c1ccc3c(c1)CCN3C(=O)Cc1cccc(C(F)(F)F)c1)cn2CCN1CCOCC1 [Example 127, 7-[2-(4-morpholinyl)ethyl]-5-(1-{[3-(trifluoromethyl)phenyl]acetyl}-2,3-dihydro-1H-indol-5-yl)-7H-pyrrolo[2,3-d]pyrimidin-4-amine]
≤ 1 nM	Cc1cccc(CC(=O)N2CCc3cc(-c4cn(C5CNC5)c5ncnc(N)c45)ccc32)c1 [Example 92, 7-(3-azetidinyl)-5-{1-[(3-methylphenyl)acetyl]-2,3-dihydro-1H-indol-5-yl}-7H-pyrrolo[2,3-d]pyrimidin-4-amine]
≤ 1 nM	Cn1nc(N)c2c(-c3ccc4c(c3)CCN4C(=O)Cc3cccc(C(F)(F)F)c3)cncc21 [Example 143, 1-methyl-4-(1-{[3-(trifluoromethyl)phenyl]acetyl}-2,3-dihydro-1H-indol-5-yl)-1H-pyrazolo[3,4-c]pyridin-3-amine]
≤ 1 nM	Cc1cccc(CC(=O)N2CCc3cc(-c4cn(C)c5ncnc(N)c45)ccc32)c1C [Example 81, 5-{1-[(2,3-dimethylphenyl)acetyl]-2,3-dihydro-1H-indol-5-yl}-7-methyl-7H-pyrrolo[2,3-d]pyrimidin-4-amine]
≤ 0.316 nM	Cc1cccc(CC(=O)N2CCc3cc(-c4cncc5[nH]nc(N)c45)ccc32)c1 [Example 130, 4-{1-[(3-methylphenyl)acetyl]-2,3-dihydro-1H-indol-5-yl}-1H-pyrazolo[3,4-c]pyridin-3-amine]

Second part, the compound before the results:

SMILES	IC50
Cn1cc(-c2ccc3c(c2)CCN3C(=O)Cc2cc(F)ccc2F)c2c(N)ncnc21 [Example 59, 5-{1-[(2,5-difluorophenyl)acetyl]-2,3-dihydro-1H-indol-5-yl}-7-methyl-7H-pyrrolo[2,3-d]pyrimidin-4-amine]	≤ 1 nM
Cc1cc(C)cc(CC(=O)N2CCc3cc(-c4nn(C)c5ncnc(N)c45)ccc32)c1 [Example 30, 3-{1-[(3,5-dimethylphenyl)acetyl]-2,3-dihydro-1H-indol-5-yl}-1-methyl-1H-pyrazolo[3,4-d]pyrimidin-4-amine]	≤ 1 nM
Cc1cccc(CC(=O)N2CCc3c2ccc(-c2cn(C)c4ncnc(N)c24)c3F)n1 [Example 136, 5-{4-fluoro-1-[(6-methyl-2-pyridinyl)acetyl]-2,3-dihydro-1H-indol-5-yl}-7-methyl-7H-pyrrolo[2,3-d]pyrimidin-4-amine]	≤ 1 nM
Cn1cc(-c2ccc3c(c2)CCN3C(=O)Cc2ccccc2F)c2c(N)ncnc21 [Example 34, 5-{1-[(2-fluorophenyl)acetyl]-2,3-dihydro-1H-indol-5-yl}-7-methyl-7H-pyrrolo[2,3-d]pyrimidin-4-amine]	≤ 0.316 nM
Cc1cc(C)n(CC(=O)N2CCc3cc(-c4cn(C)c5ncnc(N)c45)ccc32)n1 [Example 111, 5-{1-[(3,5-dimethyl-1H-pyrazol-1-yl)acetyl]-2,3-dihydro-1H-indol-5-yl}-7-methyl-7H-pyrrolo[2,3-d]pyrimidin-4-amine]	≤ 1 nM
Cn1cc(-c2ccc3c(c2)CCN3C(=O)Cc2cc(F)cc(F)c2F)c2c(N)ncnc21 [Example 90, 7-methyl-5-{1-[(2,3,5-trifluorophenyl)acetyl]-2,3-dihydro-1H-indol-5-yl}-7H-pyrrolo[2,3-d]pyrimidin-4-amine]	≤ 0.316 nM
Nc1ncc(-c2cn[nH]c2)c2scc(-c3ccc4c(c3)CCN4C(=O)Cc3ccccc3)c12 [Example 13, 3-[1-(phenylacetyl)-2,3-dihydro-1H-indol-5-yl]-7-(1H-pyrazol-4-yl)thieno[3,2-c]pyridin-4-amine]	≤ 1 nM
Cc1ccc(F)c(CC(=O)N2CCc3cc(-c4cn(C)c5ncnc(N)c45)ccc32)c1 [Example 73, 5-{1-[(2-fluoro-5-methylphenyl)acetyl]-2,3-dihydro-1H-indol-5-yl}-7-methyl-7H-pyrrolo[2,3-d]pyrimidin-4-amine]	≤ 1 nM
Cn1cc(-c2ccc3c(c2)CCN3C(=O)Cc2cccc(Cl)c2)c2c(N)ncnc21 [Example 46, 5-{1-[(3-chlorophenyl)acetyl]-2,3-dihydro-1H-indol-5-yl}-7-methyl-7H-pyrrolo[2,3-d]pyrimidin-4-amine]	≤ 0.316 nM
Cn1cc(-c2cnc(N)c3c(-c4ccc5c(c4)CCN5C(=O)Cc4ccccc4)csc23)cn1 [Example 14, 7-(1-methyl-1H-pyrazol-4-yl)-3-[1-(phenylacetyl)-2,3-dihydro-1H-indol-5-yl]thieno[3,2-c]pyridin-4-amine]	≤ 2.51 nM
Nc1ncc(-c2ccncc2)c2scc(-c3ccc4c(c3)CCN4C(=O)Cc3ccccc3)c12 [Example 9, 3-[1-(phenylacetyl)-2,3-dihydro-1H-indol-5-yl]-7-(4-pyridinyl)thieno[3,2-c]pyridin-4-amine]	≤ 1 nM
Nc1nccc2scc(-c3ccc4c(c3)CCN4C(=O)Cc3cccc(Cl)c3)c12 [Example 22, 3-{1-[(3-chlorophenyl)acetyl]-2,3-dihydro-1H-indol-5-yl}thieno[3,2-c]pyridin-4-amine]	≤ 2.51 nM
Cn1cc(-c2ccc3c(c2)CCN3C(=O)Cc2ccccc2)c2c(N)ncnc21 [Example 4, 7-methyl-5-[1-(phenylacetyl)-2,3-dihydro-1H-indol-5-yl]-7H-pyrrolo[2,3-d]pyrimidin-4-amine]	≤ 2.51 nM
Cc1cccc(CC(=O)N2CCc3cc(-c4cn(C)c5ncnc(N)c45)ccc32)c1F [Example 71, 5-{1-[(2-fluoro-3-methylphenyl)acetyl]-2,3-dihydro-1H-indol-5-yl}-7-methyl-7H-pyrrolo[2,3-d]pyrimidin-4-amine]	≤ 0.316 nM
Cc1cccc(CC(=O)N2CCc3cc(-c4nn(C)c5ncnc(N)c45)ccc32)c1F [Example 74, 3-{1-[(2-fluoro-3-methylphenyl)acetyl]-2,3-dihydro-1H-indol-5-yl}-1-methyl-1H-pyrazolo[3,4-d]pyrimidin-4-amine]	≤ 1 nM
Cc1cc(C)n(CC(=O)N2CCc3c2ccc(-c2cn(C)c4ncnc(N)c24)c3F)n1 [Example 138, 5-{1-[(3,5-dimethyl-1H-pyrazol-1-yl)acetyl]-4-fluoro-2,3-dihydro-1H-indol-5-yl}-7-methyl-7H-pyrrolo[2,3-d]pyrimidin-4-amine]	≤ 2.51 nM
